Experimental data: PubChem BioAssay (NCI)
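Step 1: Grow cells in 96-well plates. Step 2: Expose to compound for 48 hours at 5 concentrations. Step 3: Interpolate endpoints linearly; if unreached, use highest concentration. TGI marks complete inhibition of growth.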

Key:
Experiment in all cases: growth of human tumour cells (NCI), 48 h
SNB-75 CNS = tested on: SNB-75 CNS
SF-539 CNS = tested on: SF-539 CNS
SK-MEL-28 melanoma = tested on: SK-MEL-28 melanoma
PC-3 prostate = tested on: PC-3 prostate
SK-MEL-2 melanoma = tested on: SK-MEL-2 melanoma
HCT-116 colon = tested on: HCT-116 colon
HOP-92 NSCLC = tested on: HOP-92 NSCLC
KM12 colon = tested on: KM12 colon
NCI/ADR-RES ovarian = tested on: NCI/ADR-RES ovarian
EKVX NSCLC = tested on: EKVX NSCLC
OVCAR-3 ovarian = tested on: OVCAR-3 ovarian
IGROV1 ovarian = tested on: IGROV1 ovarian
SW-620 colon = tested on: SW-620 colon

| SMILES | TGI (SNB-75 CNS) [µM] | TGI (SF-539 CNS) [µM] | TGI (SK-MEL-28 melanoma) [µM] | TGI (PC-3 prostate) [µM] | TGI (SK-MEL-2 melanoma) [µM] | TGI (HCT-116 colon) [µM] | TGI (HOP-92 NSCLC) [µM] | TGI (KM12 colon) [µM] | TGI (NCI/ADR-RES ovarian) [µM] | TGI (EKVX NSCLC) [µM] | TGI (OVCAR-3 ovarian) [µM] | TGI (IGROV1 ovarian) [µM] | TGI (SW-620 colon) [µM] |
| --- | --- | --- | --- | --- | --- | --- | --- | --- | --- | --- | --- | --- | --- |
| CC(=O)c1ccc2c(c1)CC1(C2)Cc2cc3c(cc2C1)C(=O)CC3 (stereo not given) | > 100 | 3.39 | 30.4 | 17.8 | 5.75 | 8.8 | 32.8 | 7.83 | 17.2 | > 89.6 | 5.96 | 39.2 | > 100 |
| O=[N+]([O-])c1ccccc1S(=O)(=O)N1CCCc2cc(Cl)ccc21 | > 100 | 97.2 | > 100 | > 100 | > 100 | > 100 | > 100 | > 83.9 | > 89.1 | > 100 | > 100 | > 100 | > 100 |
| COc1ccc2c(c1)CCC(CN1CCN(CCOC(c3ccc(F)cc3)c3ccc(F)cc3)CC1)=C2 | > 100 | 42.3 | 77.1 | > 100 | 33.3 | 21.2 | 42 | > 100 | 38.4 | 29.6 | 50.6 | > 100 | > 100 |
| CCOC(=O)c1ccc(N=C/C=C(\Nc2ccc(C(=O)OCC)cc2)c2ccc3ccccc3c2)cc1 | > 100 | 39.2 | 61.1 | > 100 | 66.9 | > 100 | > 100 | 48.2 | 70.3 |  | 83.5 | > 100 | > 100 |
| Cn1c2ccccc2n2c(=O)c(-c3ccc(O)cc3)nnc12 | 75 | > 100 | > 100 | > 100 | > 100 | > 100 | > 100 | > 100 | > 100 | > 100 |  | > 100 | > 100 |
| CC1CCN(c2nnc(Cl)cc2C(=O)c2ccccc2)CC1 | 70 | 77.4 | > 100 | > 100 | 40.8 | > 100 | 55.5 | 52.6 | > 100 | > 100 | 71 | > 100 | 59.6 |
| COC(=O)CCCc1ccc2c(c1)CCC2 | > 100 | > 100 | > 100 | > 100 | > 100 | > 100 | > 100 | > 100 | > 100 |  | > 100 | > 100 | > 100 |
| O=C(O)CCCN1CCCCC1 | > 100 |  | > 100 | > 100 | > 100 | > 100 | > 100 | > 100 | > 100 | > 100 | > 100 | > 100 | > 100 |
| CCCCN(CCCC)CC(=O)c1ccc2cc(Cl)c3ccccc3c2c1 | 67.3 | > 100 |  | > 100 | 69.9 | > 100 | > 100 | > 100 | > 100 | > 100 | > 100 | 62 | > 100 |
| C=C1C(=O)O[C@H]2C1C[C@@H](O)[C@@]1(C)OC1CC[C@@]1(C)O[C@H]21 (stereo not given in full) | > 100 |  | 38.8 | 83.9 | 47.1 | 34.3 | 32.6 | 53.2 | 64 | 36 |  |  | 38.5 |
| O=C(/C=C1\N=C(c2ccccc2)N(c2ccc3c(c2)Sc2cc(N4C(=O)/C(=C/C(=O)/C=C/c5ccccc5)N=C4c4ccccc4)ccc2N3)C1=O)/C=C/c1ccccc1 | 45.6 |  | > 100 | 37.6 | 38.2 | > 100 | > 100 | > 100 | > 100 | > 100 | 43.6 | > 100 | > 100 |
| CCCCc1ccc(N2C(=O)c3cc(C)cnc3S2(=O)=O)cc1 | > 100 |  | > 100 | > 100 | > 100 | > 100 | > 100 | > 100 | > 100 | > 100 | > 100 | > 100 | > 100 |
| CCOC(=O)c1cc(-c2ccc(OC)c(OC)c2)cn1C | > 10 | > 10 | > 10 | > 10 | > 10 | > 10 | > 10 | > 10 | > 10 | > 10 | > 10 | > 10 |  |
| NS(=O)(=O)c1ccc(CNC(=S)NC(=O)Nc2ccc(Cl)c(Cl)c2)cc1 | 60.2 | 41.5 | 69.8 | 25.2 | 31.4 | 32.6 | 52.9 | 43.1 | 41.1 |  |  | 50.5 | 44.7 |
| CCOC(=O)c1c(OCC)[nH]c(=O)c(C(c2ccc(F)cc2)c2c(O)c(C(=O)OCC)c(OCC)[nH]c2=O)c1O |  | 23.5 | 27 | 34.6 | 37 | > 100 | 18.1 | 37.7 | > 100 | 33.2 | 39.7 | 30.3 | 51.1 |
| C#CCNC(Cc1ccccc1)C(=O)O (stereo not given) | > 100 |  | > 100 | > 100 | > 100 | > 100 | > 100 | > 100 | > 100 | > 100 | > 100 | > 100 | > 100 |
| CC1(C(O)c2ccccc2)CN(C(C)(C)C)C(=O)/C1=C\Sc1ccccc1 (stereo not given) |  | > 100 | > 100 | > 100 | > 100 | > 100 | 21.7 | > 100 | > 100 | > 100 | > 100 | > 100 | > 100 |
